Tests used:
human recombinant BACE1 = human recombinant BACE1 (Homo sapiens (Human), UniProt P56817); assay: In vitro enzymatic BACE1 FRET assay; type: biochemical; details: read-out: IC50 IP (μM) BACE1 enzyme
In short: (§1)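 Read-out: dequenched fluorescence, excitation 488 nm, emission 590 nm, after proteolysis of a quenched peptide spanning the BACE cleavage site. Substrate at 50 nM, 1 h incubation, termination by Tris addition to neutral pH.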

human recombinant BACE2 = human recombinant BACE2 (Homo sapiens (Human), UniProt Q9Y5Z0); assay: In vitro enzymatic BACE2 FRET assay; type: biochemical; details: read-out: IC50 IP (μM) BACE2 enzyme
In short: as §1

[1] = system: Aβ40 in conditioned medium of cells stably expressing Amyloid Precursor Protein (APP); assay: In vitro BACE-1 cell-based assay (Aβ40 sandwich ELISA); details: read-out: IC50 IP (μM) BACE1 cell
In short: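 Read-out: time-resolved fluorescence (Streptavidin-Europium) of Aβ40 captured by pAb40 and detected with biotinylated 6E10 from supernatants of APP-stable cells. Cells were exposed to compound for 24 h, 10-point dose response, top dose 100 μM or 10 μM, 0.1% DMSO. IC50 fitted to percent of control.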

Recombinant Cat D = Recombinant Cat D (Homo sapiens (Human), UniProt P07339); assay: In vitro enzymatic Cathepsin D (Cat D) FRET assay; type: biochemical; details: read-out: IC50 IP (μM) CatD
In short: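 Cleavage of a 20 nM FRET peptide by CHO-derived Cat D over 1 h at pH 3.5 (citrate buffer with CHAPS, 10% DMSO final). Endpoint fluorescence is read after Tris quench.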

Chain of human recombinant BACE1 (P56817 46-501): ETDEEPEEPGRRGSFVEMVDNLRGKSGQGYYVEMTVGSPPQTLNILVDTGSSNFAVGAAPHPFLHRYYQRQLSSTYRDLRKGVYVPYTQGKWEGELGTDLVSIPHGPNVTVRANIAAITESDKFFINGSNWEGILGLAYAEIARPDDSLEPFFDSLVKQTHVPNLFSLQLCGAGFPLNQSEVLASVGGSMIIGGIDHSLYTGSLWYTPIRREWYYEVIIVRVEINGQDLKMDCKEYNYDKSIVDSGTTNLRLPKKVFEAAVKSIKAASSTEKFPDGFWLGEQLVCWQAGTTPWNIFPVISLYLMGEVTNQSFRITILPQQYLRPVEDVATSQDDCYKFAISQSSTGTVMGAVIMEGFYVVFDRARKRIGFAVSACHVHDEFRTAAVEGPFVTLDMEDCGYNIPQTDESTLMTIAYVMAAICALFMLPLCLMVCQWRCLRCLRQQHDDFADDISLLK
Chain of Recombinant Cat D (P07339 65-412): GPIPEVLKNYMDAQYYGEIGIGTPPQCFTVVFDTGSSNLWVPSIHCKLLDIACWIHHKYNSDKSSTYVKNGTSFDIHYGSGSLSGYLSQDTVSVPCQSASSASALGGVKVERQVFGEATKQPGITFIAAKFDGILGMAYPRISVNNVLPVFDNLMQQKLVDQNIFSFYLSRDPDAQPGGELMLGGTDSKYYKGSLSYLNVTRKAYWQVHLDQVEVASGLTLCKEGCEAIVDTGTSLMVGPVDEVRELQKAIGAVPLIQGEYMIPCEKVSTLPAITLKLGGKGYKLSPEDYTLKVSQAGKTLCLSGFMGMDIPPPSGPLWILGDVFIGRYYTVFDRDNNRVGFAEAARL
Chain of human recombinant BACE2 (Q9Y5Z0 63-518): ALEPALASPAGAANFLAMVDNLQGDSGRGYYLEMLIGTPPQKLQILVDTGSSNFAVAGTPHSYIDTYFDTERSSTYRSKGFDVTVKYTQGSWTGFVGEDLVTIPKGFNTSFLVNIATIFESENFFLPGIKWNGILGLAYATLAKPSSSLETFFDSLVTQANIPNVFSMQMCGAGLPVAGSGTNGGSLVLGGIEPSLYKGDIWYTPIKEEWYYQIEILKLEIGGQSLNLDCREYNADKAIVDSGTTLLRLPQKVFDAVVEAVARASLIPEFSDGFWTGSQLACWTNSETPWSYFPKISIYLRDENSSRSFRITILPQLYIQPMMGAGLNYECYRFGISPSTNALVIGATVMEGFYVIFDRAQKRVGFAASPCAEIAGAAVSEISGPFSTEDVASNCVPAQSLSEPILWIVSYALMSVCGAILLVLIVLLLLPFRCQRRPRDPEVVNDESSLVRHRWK

Compound	IC50 (human recombinant BACE1) [µM]	IC50 (human recombinant BACE2) [µM]	IC50 [1] [µM]	IC50 (Recombinant Cat D) [µM]
C#CCOc1cnc2c(Nc3ccc(F)c([C@@]4(C)N=C(N)S[C@@]5(CF)C[C@H]54)c3)ncnc2c1 [Example 824, N-(3-((1S,5S,6S)-3-amino-1-(fluoromethyl)-5-methyl-2-thia-4-azabicyclo[4.1.0]hept-3-en-5-yl)-4-fluorophenyl)-7-(2-propyn-1-yloxy)pyrido[3,2-d]pyrimidin-4-amine]	0.00299	0.0842	0.00128	1840
C[C@]1(c2cc(Nc3nccc4nc(OCc5ncco5)cnc34)ccc2F)N=C(N)S[C@@]2(CF)C[C@H]21 [Example 825, N-(3-((1S,5S,6S)-3-amino-1-(fluoromethyl)-5-methyl-2-thia-4-azabicyclo[4.1.0]hept-3-en-5-yl)-4-fluorophenyl)-2-(1,3-oxazol-2-ylmethoxy)pyrido[3,4-b]pyrazin-5-amine]	0.00357	0.0542	0.00111	526
C[C@]1(c2cc(NC(=O)c3cnc(OCC(F)(F)F)cn3)ccc2F)N=C(N)S[C@@]2(CF)C[C@H]21 [Example 826, N-(3-((1S,5S,6S)-3-amino-1-(fluoromethyl)-5-methyl-2-thia-4-azabicyclo[4.1.0]hept-3-en-5-yl)-4-fluorophenyl)-5-(2,2,2-trifluoroethoxy)-2-pyrazinecarboxamide]	0.00174	0.0778	0.00331	395
C#CCOc1cnc(C(=O)Nc2ccc(F)c([C@@]3(C)N=C(N)S[C@@]4(CF)C[C@H]43)c2)c(C)n1 [Example 829, N-(3-((1S,5S,6S)-3-amino-1-(fluoromethyl)-5-methyl-2-thia-4-azabicyclo[4.1.0]hept-3-en-5-yl)-4-fluorophenyl)-3-methyl-5-(2-propyn-1-yloxy)-2-pyrazinecarboxamide]	0.000776	0.00801	0.0019	354
C#CCOc1cnc(C(=O)Nc2ccc(F)c([C@@]3(C)N=C(N)S[C@@]4(C(F)F)C[C@@H]34)c2)c(C)n1 [Example 830, N-(3-((1S,5S,6S)-3-amino-1-(difluoromethyl)-5-methyl-2-thia-4-azabicyclo[4.1.0]hept-3-en-5-yl)-4-fluorophenyl)-3-methyl-5-(2-propyn-1-yloxy)-2-pyrazinecarboxamide]	0.000566	0.0101	0.00221	121
C#CCOc1cnc(C(=O)Nc2ccc(F)c([C@@]3(C)N=C(N)S[C@@]4(COC)C[C@H]43)c2)c(C)n1 [Example 832, N-(3-((1S,5S,6S)-3-amino-1-(methoxymethyl)-5-methyl-2-thia-4-azabicyclo[4.1.0]hept-3-en-5-yl)-4-fluorophenyl)-3-methyl-5-(2-propyn-1-yloxy)-2-pyrazinecarboxamide]	0.00299	0.013	0.00213	778
COC[C@]12C[C@H]1[C@@](C)(c1cc(NC(=O)c3ccc(Cl)cn3)ccc1F)N=C(N)S2 [Example 833, N-(3-((1S,5S,6S)-3-amino-1-(methoxymethyl)-5-methyl-2-thia-4-azabicyclo[4.1.0]hept-3-en-5-yl)-4-fluorophenyl)-5-chloro-2-pyridinecarboxamide]	0.0041	0.0061	0.0137	> 400
COC[C@]12C[C@H]1[C@@](C)(c1cc(NC(=O)c3ncc(OCc4ncco4)nc3C)ccc1F)N=C(N)S2 [Example 835, N-(3-((1S,5S,6S)-3-amino-1-(methoxymethyl)-5-methyl-2-thia-4-azabicyclo[4.1.0]hept-3-en-5-yl)-4-fluorophenyl)-3-methyl-5-(1,3-oxazol-2-ylmethoxy)-2-pyrazinecarboxamide]	0.00305	0.0249	0.00392	> 400
Cc1nc(OCc2ncco2)cnc1C(=O)Nc1ccc(F)c([C@@]2(C)N=C(N)S[C@@]3(C(F)F)C[C@@H]23)c1 [Example 836, N-(3-((1S,5S,6S)-3-amino-1-(difluoromethyl)-5-methyl-2-thia-4-azabicyclo[4.1.0]hept-3-en-5-yl)-4-fluorophenyl)-3-methyl-5-(1,3-oxazol-2-ylmethoxy)-2-pyrazinecarboxamide]	0.00209	0.0362	0.00389	> 400
Cc1nc(OCc2ncco2)cnc1C(=O)Nc1ccc(F)c([C@@]2(C)N=C(N)S[C@@]3(CF)C[C@H]32)c1 [Example 837, N-(3-((1S,5S,6S)-3-amino-1-(fluoromethyl)-5-methyl-2-thia-4-azabicyclo[4.1.0]hept-3-en-5-yl)-4-fluorophenyl)-3-methyl-5-(1,3-oxazol-2-ylmethoxy)-2-pyrazinecarboxamide]	0.00253	0.0259	0.00325	1070
COC[C@]12C[C@H]1[C@@](C)(c1cc(Nc3ncnc4cc(Cl)cnc34)cnc1F)N=C(N)S2 [Example 844, (1S,5S,6S)-5-(5-((7-chloropyrido[3,2-d]pyrimidin-4-yl)amino)-2-fluoropyridin-3-yl)-1-(methoxymethyl)-5-methyl-2-thia-4-azabicyclo[4.1.0]hept-3-en-3-amine]	0.0219	0.0108	0.0145	1780
C#CCOc1cnc(C(=O)Nc2cnc(F)c([C@@]3(C)N=C(N)S[C@@]4(COC)C[C@H]43)c2)c(C)n1 [Example 845, N-(5-((1S,5S,6S)-3-amino-1-(methoxymethyl)-5-methyl-2-thia-4-azabicyclo[4.1.0]hept-3-en-5-yl)-6-fluoro-3-pyridinyl)-3-methyl-5-(2-propyn-1-yloxy)-2-pyrazinecarboxamide]	0.0026	0.0257	0.00473	1710
COC[C@]12C[C@H]1[C@@](C)(c1cc(Nc3ncnc4cc(C#N)cnc34)cnc1F)N=C(N)S2 [Example 846, 4-((5-((1S,5S,6S)-3-amino-1-(methoxymethyl)-5-methyl-2-thia-4-azabicyclo[4.1.0]hept-3-en-5-yl)-6-fluoro-3-pyridinyl)amino)pyrido[3,2-d]pyrimidine-7-carbonitrile]	0.0282	0.0494	0.0111	> 400
COC[C@]12C[C@H]1[C@@](C)(c1cc(Nc3nccc4cc(C#N)cnc34)cnc1F)N=C(N)S2 [Example 847, 8-((5-((1S,5S,6S)-3-amino-1-(methoxymethyl)-5-methyl-2-thia-4-azabicyclo[4.1.0]hept-3-en-5-yl)-6-fluoro-3-pyridinyl)amino)-1,7-naphthyridine-3-carbonitrile]	0.0113	0.00955	0.00675	1910
C#CCOc1cnc2c(Nc3cnc(F)c([C@@]4(C)N=C(N)S[C@@]5(COC)C[C@H]54)c3)nccc2n1 [Example 848, N-(5-((1S,5S,6S)-3-amino-1-(methoxymethyl)-5-methyl-2-thia-4-azabicyclo[4.1.0]hept-3-en-5-yl)-6-fluoro-3-pyridinyl)-2-(2-propyn-1-yloxy)pyrido[3,4-b]pyrazin-5-amine]	0.00136	0.0335	0.00134	773
COC[C@]12C[C@H]1[C@@](C)(c1cc(Nc3nccc4nc(OCc5ncco5)cnc34)cnc1F)N=C(N)S2 [Example 849, N-(5-((1S,5S,6S)-3-amino-1-(methoxymethyl)-5-methyl-2-thia-4-azabicyclo[4.1.0]hept-3-en-5-yl)-6-fluoro-3-pyridinyl)-2-(1,3-oxazol-2-ylmethoxy)pyrido[3,4-b]pyrazin-5-amine]	0.00343	0.0463	0.0017	1530
[2H]C([2H])([2H])OC[C@]12C[C@H]1[C@@](C)(c1cc(NC(=O)c3ncc(OCC#C)nc3C)cnc1F)N=C(N)S2 [Example 850, N-(5-((1S,5S,6S)-3-amino-5-methyl-1-(((~2~H_3_)methyloxy)methyl)-2-thia-4-azabicyclo[4.1.0]hept-3-en-5-yl)-6-fluoro-3-pyridinyl)-3-methyl-5-(2-propyn-1-yloxy)-2-pyrazinecarboxamide]	0.00121	0.00886	0.00207	1150
[2H]C([2H])([2H])OC[C@]12C[C@H]1[C@@](C)(c1cc(NC(=O)c3cnc(OCC#C)cn3)cnc1F)N=C(N)S2 [Example 851, N-(5-((1S,5S,6S)-3-amino-5-methyl-1-(((~2~H_3_)methyloxy)methyl)-2-thia-4-azabicyclo[4.1.0]hept-3-en-5-yl)-6-fluoro-3-pyridinyl)-5-(2-propyn-1-yloxy)-2-pyrazinecarboxamide]	0.000574	0.0184	0.000624	468
[2H]C([2H])([2H])OC[C@]12C[C@H]1[C@@](C)(c1cc(Nc3ncnc4cc(Cl)cnc34)cnc1F)N=C(N)S2 [Example 852, N-(5-((1S,5S,6S)-3-amino-5-methyl-1-(((~2~H_3_)methyloxy)methyl)-2-thia-4-azabicyclo[4.1.0]hept-3-en-5yl)-6-fluoro-3-pyridinyl)-7-chloropyrido[3,2-d]pyrimidin-4-amine]	0.0127	0.00758	0.0101	1680

Reference: patent US20160046618A1, “Cyclopropyl Fused Thiazin-2-Amine Compounds as Beta-Secretase Inhibitors and Methods of Use” (AMGEN INC., priority 2014, published 2016)
